Results taken from patent publication US7071177B2, “P-(sulfonyl) aryl and heteroarylamines as anti-inflammatory agents” (Syntex (U.S.A.) LLC, priority 2000, dated 2006).

Structure (SMILES)	melting point [°C]
CCOc1ccc(CN(CCS(C)(=O)=O)c2ccc(S(C)(=O)=O)c(F)c2)cc1 [1-72, (4-ethoxy-benzyl)-(3-fluoro-4-methanesulfonyl-phenyl)-(2-methanesulfonyl-ethyl)-amine]	56 to 59
COc1ccc(CNS(=O)(=O)c2ccc(N(CCS(C)(=O)=O)Cc3ccc(C)cc3)cc2)cc1 [2-1, 4-[(2-methylsulfonyl-ethyl)-(4-methyl-benzyl)amino]-N-(4-methoxy-benzyl)-benzenesulfonamide]	85.7 to 86.6
CS(=O)(=O)CCN(Cc1ccccn1)c1ccc(S(C)(=O)=O)cc1 [1-45, 4-{N,N-[2-(methylsulfonyl)ethyl](pyridin-2-ylmethyl)amino}phenyl methyl sulfone]	139.5 to 140.5

More lines, now with the values ahead:

melting point [°C]	Structure (SMILES)
169.1 to 170	Cc1ccc(CN(CCS(C)(=O)=O)c2ccc(S(N)(=O)=O)cc2)cc1 [2-2, 4-[(2-methylsulfonyl-ethyl)-(4-methyl-benzyl)-amino]-benzenesulfonamide]
152.9 to 153.2	CS(=O)(=O)CCN(Cc1ccc(F)cc1F)c1ccc(S(N)(=O)=O)cc1 [2-4, 4-[(2-methylsulfonyl-ethyl)-(2,4-difluorobenzyl)-amino]-benzenesulfonamide]
